The results in this text go back to ChEMBL document CHEMBL3091311, “Removal of human ether-à-go-go related gene (hERG) K+ channel affinity through rigidity: a case of clofilium analogues” (J Med Chem, 2013).

For series [1], the target named is T1, Voltage-gated inwardly rectifying potassium channel KCNH2 (Homo sapiens, UniProt Q12809). Kind of series: Displacement of [3H]astemizole from human ERG channel expressed in HEK293 cell membrane after 1 hr by scintillation counting analysis. A general note: Loss of bound radioactivity is the signal in a displacement assay; it reports binding, not function.
In series [2] the target is T2, hERG (KCNH2) (Homo sapiens, UniProt Q12809). Kind of series: Ratio of Ki for human ERG channel expressed in HEK293 cell membrane after 1 hr by scintillation counting analysis to IC50 for human ERG channel expressed in HEK293 cells after 15 mins by whole-cell patch clamp technique. The series is classed as cell membranes. A general note: Patch clamp records ionic current or voltage across a cell membrane.

Series [3] concerns the target T1, Voltage-gated inwardly rectifying potassium channel KCNH2. Kind of series: Inhibition of human ERG channel expressed in HEK293 cells after 15 mins by whole-cell patch clamp technique. The class given is cell-based.
In series [4] the target is T2, hERG (KCNH2). Kind of series: Displacement of [3H]astemizole from human ERG channel expressed in HEK293 cell membrane at 10 uM after 1 hr by scintillation counting analysis. As to conditions: membranes of HEK293 cells that express hERG, probe [3H]astemizole.

T2 sequence (Q12809 whole entry): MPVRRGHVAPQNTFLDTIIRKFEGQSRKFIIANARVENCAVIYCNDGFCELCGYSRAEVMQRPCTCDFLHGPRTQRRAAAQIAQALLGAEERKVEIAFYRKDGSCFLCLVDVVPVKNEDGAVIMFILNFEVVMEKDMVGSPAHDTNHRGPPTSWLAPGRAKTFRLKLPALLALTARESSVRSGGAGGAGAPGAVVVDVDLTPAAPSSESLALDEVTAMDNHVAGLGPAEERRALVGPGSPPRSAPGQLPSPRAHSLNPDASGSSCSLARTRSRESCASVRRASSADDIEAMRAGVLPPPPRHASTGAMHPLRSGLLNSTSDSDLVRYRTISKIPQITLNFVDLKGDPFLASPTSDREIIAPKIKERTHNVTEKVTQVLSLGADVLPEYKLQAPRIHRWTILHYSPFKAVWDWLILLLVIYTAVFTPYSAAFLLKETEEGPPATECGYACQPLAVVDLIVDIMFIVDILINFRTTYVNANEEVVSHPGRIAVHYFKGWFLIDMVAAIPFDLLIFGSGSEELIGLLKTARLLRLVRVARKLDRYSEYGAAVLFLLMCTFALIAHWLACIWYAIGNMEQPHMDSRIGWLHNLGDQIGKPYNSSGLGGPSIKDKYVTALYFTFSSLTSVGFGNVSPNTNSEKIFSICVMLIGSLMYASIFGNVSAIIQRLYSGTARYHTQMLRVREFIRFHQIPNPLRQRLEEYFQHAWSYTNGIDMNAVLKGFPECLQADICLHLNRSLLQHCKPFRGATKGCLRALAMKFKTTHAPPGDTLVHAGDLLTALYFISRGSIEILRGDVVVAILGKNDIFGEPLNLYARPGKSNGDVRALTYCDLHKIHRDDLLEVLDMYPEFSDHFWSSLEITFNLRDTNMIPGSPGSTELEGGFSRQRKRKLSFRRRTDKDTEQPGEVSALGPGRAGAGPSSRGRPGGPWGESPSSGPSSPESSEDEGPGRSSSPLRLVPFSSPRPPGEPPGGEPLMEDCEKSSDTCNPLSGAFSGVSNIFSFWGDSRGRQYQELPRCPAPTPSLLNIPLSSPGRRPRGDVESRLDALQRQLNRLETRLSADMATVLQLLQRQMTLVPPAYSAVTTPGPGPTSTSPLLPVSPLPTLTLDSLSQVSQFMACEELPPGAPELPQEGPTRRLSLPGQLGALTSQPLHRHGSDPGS
T1 sequence (Q12809 whole entry): as above

For the compound `CCCCCCCN(CC)CC#CCCc1ccccc1`, the IC50 in series [1] is 4390 nM.
Same read-out and setting: for `CCCCCCC[N+](CC)(CC)CC#Cc1ccc(Cl)cc1` the value was 40 nM; for `CCCCCCCN(CC)C/C=C/CCc1ccc(Cl)cc1`, 238 nM.
In series [1], `CCCCCCCN(CC)CC#CCCc1ccc(Cl)cc1` registered an IC50 of 765 nM and an inhibition constant Ki of 148 nM. For the same compound, the selectivity ratio at hERG (KCNH2) [2] is 2. For the same compound, the midpoint of inhibition in series [3], the IC50, lay at 53 nM.
For `CCCCCCCN(CC)CC#CCOC(c1ccccc1)c1ccccc1`, the IC50 in series [1] was determined as 970 nM.
The same measure, in the same setting: for `CCCCN(CC)CC#CCOCc1ccc(Cl)cc1` the value was 7370 nM; for `CCCCCCCN1CCC(C(=O)c2ccccc2)CC1`, 124 nM.
As to `CCCCN(CC)CC#CCCc1ccc(C)cc1`, in series [1], the half-inhibitory concentration (IC50) stood at 5590 nM.
The same measure, in the same setting: for `CCCCCCCN(CC)C/C=C/c1ccc(Cl)cc1` the value was 243 nM.
Take `CCCCN(CC)CC#CC#Cc1ccc(C)cc1`: on hERG (KCNH2) [4], the inhibition at 1 h, 10 µM was determined as 47%.
For `CCCCN(CC)C/C=C/c1ccc(Cl)cc1`, the concentration for half-maximal inhibition (IC50) in series [1] turned out to be 1050 nM.
On to `CCCCN(CC)CC#CCCc1ccccc1`, for which, on hERG (KCNH2) [4], the inhibition at 1 h, 10 µM worked out at 48%.
`CCCCCCCN(CC)CC#Cc1ccc(Cl)cc1` registered a 50% inhibitory concentration (IC50) in series [1] of 4080 nM.

The term IC50 denotes the concentration that gives 50% inhibition. As usually defined, the Ki is the dissociation constant of the complex between target and ligand, obtained from inhibition or displacement. High values mean lower affinity, low ones higher affinity. As a reminder, the inhibition is the share of the control response that was lost under treatment. Read a high inhibition as a response far below the control.
